Consider 7 compounds from patent US20260139007A1, “EPHA4 ANTAGONISTS AND USES THEREOF” (SANFORD BURNHAM PREBYS MEDICAL DISCOVERY INSTITUTE, priority 2023, published 2026).

Like-named read-outs stand apart in the source and are kept apart here. Numbered stars: 1 amine (or outer) side, 2 acyl side, 3 side chain; on linkers, the order of the positions; unused ones are H or OH. Bridge positions count the residues as written; N and C are the ends. Square brackets hold non-standard residues; d marks the D form. Side chains are listed from the residue outwards. Peptide text beside a SMILES is read from it. * marks the point of attachment. γGlu = O=C(O)[C@H](CCC(=O)[*:2])N[*:1]; Palmitoyl = CCCCCCCCCCCCCCCC(=O)*; Octanoyl = CCCCCCCC(=O)*; βAla = NCCC(=O)O

Series [1] relates to EphA4 Fc. The series is described as follows: ELISA measuring inhibition of ephrin-A5 AP binding to immobilized EphA4 Fc. Also noted: species or system human or mouse.
Series [2] relates to EphA4 Fc. The series is described as follows: ELISA inhibition of ephrin-A5 AP binding to EphA4 Fc in the presence of HSA, BSA or methyl-β-cyclodextrin. For orientation: ELISA stands for enzyme-linked immunosorbent assay.
Text: To determine whether albumin binding to the lipidated compounds affects their ability to bind EphA4, the effects of delipidated human serum albumin (HSA) on the inhibitory potency of some of the compounds were examined.
Series [3] is described as follows: In vivo half-life: active compound remaining in mouse blood, deduced from apparent IC50 of plasma in the EphA4-ephrinA5 ELISA. The note with it: mouse, in vivo, mouse, read-out: In vivo half-life (converted). The protocol:
To examine the persistence of compounds in the blood circulation, an approach was devised to determine the concentration of compound in mouse blood by taking advantage of the ELISA measuring inhibition of EphA4-ephrinA5 interaction.
Lipidated compounds dissolved in DMSO were diluted in […] PBS (to a 5% final DMSO concentration) or in […] PBS supplemented with 20 or 40 mg/mL BSA or 6.5 mM methyl-β-cyclodextrin for intravenous or intraperitoneal injection. Neutral pH of the compound solution was verified before injection. PEGylated compounds were dissolved in […] PBS before intraperitoneal injection. Peptides were sterile filtered before administration. Blood from each mouse was collected at 3 different time points after compound injection, the first 2 times by retro-orbital bleeding and the third time by terminal cardiac bleeding under deep anesthesia. Red blood cells were removed by centrifugation from blood treated with heparin and the resulting plasma was frozen in aliquots.
For each time point, a dose-response curves by measuring inhibition of EphA4-ephrinA5 binding at different plasma dilutions was obtained.

The mark [4] stands for this setting: inhibition of ephrin-A5 AP binding to EphA4 Fc, averages of all experiments, read-out: IC50 ± SE (n) by ELISA.
The mark [5] stands for this setting: ip, IP (intraperitoneal administration).
Where [6] appears, read: iv, IV (intravenous administration).

On to `CC(C)[C@@H]1NC(=O)[C@@H](NC(=O)[C@H](Cc2ccc(O)cc2)NC(=O)[C@@H]2CCCN2C(=O)[C@H](C)N)CSSC[C@@H](C(=O)NCC(=O)NCC(=O)N[C@@H](CCCCN)C(=O)NCC(N)=O)NC(=O)[C@H](CO)NC(=O)[C@H](Cc2c[nH]c3ccccc23)NC(=O)[C@H](CO)NC(=O)CCNC(=O)[C@H](CCCNC(=N)N)NC(=O)[C@H](Cc2ccc(O)cc2)NC1=O` [Compound 2], for which the “potency compared with APY-d2” value in series [1] (tested in parallel in the same ELISA) is “not significantly different from that for APY-d2”. Further, the “effect of HSA on potency” value in series [2] (presence vs absence of 40 mg/mL HSA, tested in parallel) is on record as “only a very small effect”.

As for `CCCCCCCCCCCCCCCC(=O)N[C@@H](CCC(=O)N[C@@H](CCC(=O)NCCCC[C@H](NC(=O)[C@H](CO)NC(=O)CNC(=O)CNC(=O)CNC(=O)[C@@H]1CSSC[C@H](NC(=O)[C@H](Cc2ccc(O)cc2)NC(=O)[C@@H]2CCCN2C(=O)CCN)C(=O)N[C@@H](C(C)C)C(=O)N[C@@H](Cc2ccc(O)cc2)C(=O)N[C@@H](CCCNC(=N)N)C(=O)NCCC(=O)N[C@@H](CO)C(=O)N[C@@H](Cc2c[nH]c3ccccc23)C(=O)N[C@@H](CO)C(=O)N1)C(=O)NCC(N)=O)C(=O)O)C(=O)O` [Compound 20] (H-[βAla]PYCVYR[βAla]SWSCGGGSK([γGlu-γGlu-Palmitoyl])G-NH2; disulfide 4-12), the IC50 in series [1] (setting [4]) was determined as 190 ± 20 nM.

Consider `CCCCCCCCCCCCCCCC(=O)N[C@@H](CCC(=O)N[C@@H](CCC(=O)NCCCC[C@H](NC(=O)CNC(=O)CNC(=O)[C@@H]1CSSC[C@H](NC(=O)[C@H](Cc2ccc(O)cc2)NC(=O)[C@@H]2CCCN2C(=O)CCN)C(=O)N[C@@H](C(C)C)C(=O)N[C@@H](Cc2ccc(O)cc2)C(=O)N[C@@H](CCCNC(=N)N)C(=O)NCCC(=O)N[C@@H](CO)C(=O)N[C@@H](Cc2c[nH]c3ccccc23)C(=O)N[C@@H](CO)C(=O)N1)C(=O)NCC(N)=O)C(=O)O)C(=O)O` [Compound 19], for which the “less potent than compound 15” value in series [1] is reported as 5-6 fold. Also, the IC50 in series [1] (setting [4]) came to 160 ± 30 nM. Also, in series [1] (two γGlu residues vs single γGlu, palmitoyl), the “better potency compared to compound 18 (single γGlu)” value was roughly 3 fold. In addition, the results for the half-life in series [3] (setting [5]) and in series [3] (setting [6]) were 60 to 90 min and roughly 48 min, respectively.

In the case of `CCCCCCCCCCCCCCCC(=O)N[C@@H](CCC(=O)NCCCC[C@H](NC(=O)CNC(=O)CNC(=O)[C@@H]1CSSC[C@H](NC(=O)[C@H](Cc2ccc(O)cc2)NC(=O)[C@@H]2CCCN2C(=O)CCN)C(=O)N[C@@H](C(C)C)C(=O)N[C@@H](Cc2ccc(O)cc2)C(=O)N[C@@H](CCCNC(=N)N)C(=O)NCCC(=O)N[C@@H](CO)C(=O)N[C@@H](Cc2c[nH]c3ccccc23)C(=O)N[C@@H](CO)C(=O)N1)C(=O)NCC(N)=O)C(=O)O` [Compound 18], in series [1] (setting [4]), the IC50 stood at 520 ± 80 nM. For the same compound, the half-life is 60 to 90 min in series [3] (setting [5]) and roughly 48 min in series [3] (setting [6]).

Turning to “βAPYCVYRβASWSC-linker2-PEG (XPYCVYRXSWSCXXK; not fully specified; non-natural residues; cyclised or stapled) [APY-d3-PEG2]”, the “potency compared with APY-d3” value in series [1] (ELISA inhibition of EphA4-ephrin-A5 interaction) was “several fold less potent than non-PEGylated APY-d3”. The IC50 in series [1] (ELISA inhibition of EphA4-ephrin-A5 interaction, read-out: IC50 (approximate)) was roughly 80 nM.

Turning to `CCCCCCCC(=O)NCCCC[C@@H]1NC(=O)[C@H](Cc2ccc(O)cc2)NC(=O)[C@H](C(C)C)NC(=O)[C@@H](NC(=O)[C@H](Cc2ccc(O)cc2)NC(=O)[C@@H]2CCCN2C(=O)CCN)CSSC[C@@H](C(N)=O)NC(=O)[C@H](CO)NC(=O)[C@H](Cc2c[nH]c3ccccc23)NC(=O)[C@H](CO)NC(=O)CCNC1=O` [Compound 4, βAPYCVYK(octanoyl)βASWSC-NH2] (H-[βAla]PYCVYK(Octanoyl)[βAla]SWSC-NH2; disulfide 4-12), the IC50 in series [2] (read-out: IC50 ± SE (n) by ELISA with HSA or BSA, 40 mg/mL delipidated HSA) came to 100 ± 30 nM.

Regarding `CCCCCCCCCCCC(=O)N[C@@H](CC(=O)NCCCC[C@H](NC(=O)CNC(=O)CNC(=O)[C@@H]1CSSC[C@H](NC(=O)[C@H](Cc2ccc(O)cc2)NC(=O)[C@@H]2CCCN2C(=O)CCN)C(=O)N[C@@H](C(C)C)C(=O)N[C@@H](Cc2ccc(O)cc2)C(=O)N[C@@H](CCCNC(=N)N)C(=O)NCCC(=O)N[C@@H](CO)C(=O)N[C@@H](Cc2c[nH]c3ccccc23)C(=O)N[C@@H](CO)C(=O)N1)C(=O)NCC(N)=O)C(=O)O` [Compound 13], the IC50 in series [1] (setting [4]) came out at 49 ± 11 nM.

By IC50 is commonly meant the concentration that gives 50% inhibition. Usually half-life stands for the time needed for the level to fall by half in the phase considered.
